Data on 13 compounds can be found in ChEMBL document CHEMBL3621192, “Novel anti-HIV-1 NNRTIs based on a pyrazolo[4,3-d]isoxazole backbone scaffold: design, synthesis and insights into the molecular basis of action” (Medchemcomm, 2014).

Series [1] relates to Human immunodeficiency virus 1. Kind of series: Antiviral activity against HIV1 RF infected in CEM-SS cells assessed as inhibition of virus-induced cytopathic effect by MTS assay. It counts as functional, organism-based. Particulars: Human immunodeficiency virus 1, RF.
The subject of series [2] is Human immunodeficiency virus 1. Description: Antiviral activity against HIV1 3B infected in MT4 cells assessed as inhibition of virus-induced cytopathic effect by MTT assay. As to conditions: Human immunodeficiency virus 1, 3B. Type of series: functional, organism-based. Background: Damage to the host cells serves as the signal in cytopathic effect assays.
Series [3] can be described thus: Cytotoxicity against human CEM-SS cells by MTS assay. Type of series: cell-based.
Series [4] is described as follows: Cytotoxicity against human MT4 cells by MTT assay. It counts as cell-based. On the technique in general: Formazan colour is commonly taken as a measure of viable cells.
The nature of series [5]: Therapeutic index, ratio of CC50 for human CEM-SS cells to EC50 for HIV1 RF infected in CEM-SS cells. Type of series: cell-based. As to conditions: read-out: Ratio CC50/EC50.
The nature of series [6]: Therapeutic index, ratio of CC50 for human MT4 cells to EC50 for HIV1 3B infected in MT4 cells. Type of series: cell-based. As to conditions: read-out: Ratio CC50/EC50.
Series [7] deals with Human immunodeficiency virus type 1 reverse transcriptase (Human immunodeficiency virus 1, UniProt Q72547). Kind of series: Inhibition of HIV1 recombinant reverse transcriptase assessed as incorporation of [32P]GTP into poly(rC).oligo(dG) template primer.
A short description of series [8]: Metabolic stability in rat plasma assessed as half life. Type of series: ADME, cell-free.

With `NC(=S)N1Nc2onc(-c3ccccc3)c2C1c1ccc(Cl)cc1` (stereo unspecified), the values for the EC50 in series [1] and in series [2] were 0.78 nM and 0.28 nM, respectively. Also, the CC50 in series [3] was found to be 360 nM; in series [4], 340 nM. Also, the selectivity ratio in series [5] turned out to be 462; in series [6] it was 1210. The IC50 in series [7] is 0.037 nM. In addition, the half-life in series [8] stood at 2.2 h.

`Cc1nc(N2Nc3onc(-c4ccccc4)c3C2c2ccc(Cl)cc2)sc1/N=N/c1ccccc1` (stereo unspecified): the results for the EC50 in series [1] and in series [2] were 0.54 nM and 0.3 nM, respectively. Further, the figures for the CC50 in series [3] and in series [4] were 450 nM and 260 nM, respectively. In addition, the selectivity ratio in series [5] came to 833; in series [6], 867. Also, the IC50 in series [7] came out at 0.019 nM. Further, in series [8], the half-life was determined as 4.42 h.

On to `Cc1ccc(/N=N/c2sc(N3Nc4onc(-c5ccccc5)c4C3c3ccc(Cl)cc3)nc2C)cc1` (stereo unspecified), for which the values for the EC50 in series [1] and in series [2] were 0.25 nM and 0.55 nM, respectively. Moreover, the CC50 came to 250 nM in series [3] and 450 nM in series [4]. Moreover, the selectivity ratio in series [5] was 1000; in series [6], 818. The IC50 in series [7] worked out at 0.027 nM. In addition, in series [8], the half-life stood at 5.72 h.

As for `Cc1nc(N2Nc3onc(-c4ccccc4)c3C2c2ccc(Cl)cc2)sc1/N=N/c1ccc(Cl)cc1` (stereo unspecified), the EC50 in series [1] was found to be 0.36 nM; in series [2], 0.46 nM. The CC50 in series [3] was 330 nM; in series [4], 340 nM. The selectivity ratio in series [5] stood at 917; in series [6], 739. Also, the IC50 in series [7] came to 0.035 nM. Also, the half-life in series [8] was found to be 7.57 h.

Turning to `Cc1nc(N2Nc3onc(-c4ccccc4)c3C2c2ccc(Cl)cc2)sc1/N=N/c1ccc(Br)cc1` (stereo unspecified), the figures for the EC50 in series [1] and in series [2] were 0.34 nM and 0.27 nM, respectively. The CC50 in series [3] was determined as 140 nM; in series [4] it was 390 nM. Besides, the selectivity ratio stood at 412 in series [5] and 1440 in series [6]. Further, the half-inhibitory concentration (IC50) in series [7] worked out at 0.016 nM. Further, in series [8], the half-life was determined as 4.07 h.

Turning to `COc1ccc(/N=N/c2sc(N3Nc4onc(-c5ccccc5)c4C3c3ccc(Cl)cc3)nc2C)cc1` (stereo unspecified), the EC50 amounted to 0.35 nM in series [1] and 0.44 nM in series [2]. Further, the CC50 in series [3] is 340 nM; in series [4], 460 nM. For the same compound, the selectivity ratio is 971 in series [5] and 1050 in series [6]. Besides, the IC50 in series [7] came out at 0.036 nM. In series [8], the half-life was 3.9 h.

`Cc1nc(N2Nc3onc(-c4ccccc4)c3C2c2ccc(Cl)cc2)sc1/N=N/c1ccc([N+](=O)[O-])cc1` (stereo unspecified): the EC50 in series [1] turned out to be 0.25 nM; in series [2], 0.18 nM. The results for the CC50 in series [3] and in series [4] were 250 nM and 280 nM, respectively. Besides, the selectivity ratio came out at 1000 in series [5] and 1560 in series [6]. For the same compound, the half-maximal inhibitory concentration (IC50) in series [7] was found to be 0.027 nM. Besides, in series [8], the half-life was 6.08 h.

In the case of `Cc1csc(N2Nc3onc(-c4ccccc4)c3C2c2ccc(Cl)cc2)n1` (stereo unspecified), the EC50 in series [1] is 0.47 nM; in series [2], 0.35 nM. In addition, the CC50 worked out at 440 nM in series [3] and 230 nM in series [4]. Besides, the selectivity ratio in series [5] stood at 936; in series [6], 657. Besides, in series [7], the IC50 amounted to 0.046 nM. Moreover, the half-life in series [8] was 5.72 h.

For the compound `N/N=C(\N)N1Nc2onc(-c3ccccc3)c2C1c1ccc(Cl)cc1` (stereo unspecified), the figures for the concentration for a half-maximal effect (EC50) in series [1] and in series [2] were 0.46 nM and 0.29 nM, respectively. The CC50 worked out at 340 nM in series [3] and 170 nM in series [4]. Besides, the selectivity ratio came out at 739 in series [5] and 586 in series [6]. The IC50 in series [7] worked out at 0.018 nM. For the same compound, the half-life in series [8] was determined as 4.57 h.

In the case of `CC1=C(/N=N/c2ccccc2)N=C(N2Nc3onc(-c4ccccc4)c3C2c2ccc(Cl)cc2)NN1` (stereo unspecified), the EC50 came to 0.44 nM in series [1] and 0.33 nM in series [2]. For the same compound, the CC50 in series [3] turned out to be 230 nM; in series [4], 450 nM. Further, the values for the selectivity ratio in series [5] and in series [6] were 523 and 1360, respectively. Also, in series [7], the IC50 came to 0.045 nM. In addition, the half-life in series [8] was 2.05 h.

With `CC1=C(/N=N/c2ccc(C)cc2)N=C(N2Nc3onc(-c4ccccc4)c3C2c2ccc(Cl)cc2)NN1` (stereo unspecified), the EC50 worked out at 0.43 nM in series [1] and 0.49 nM in series [2]. Moreover, the figures for the CC50 in series [3] and in series [4] were 360 nM and 330 nM, respectively. In addition, the selectivity ratio in series [5] was 837; in series [6], 673. Moreover, in series [7], the IC50 amounted to 0.019 nM. For the same compound, the half-life in series [8] is 2.57 h.

Turning to `CC1=C(/N=N/c2ccc(Cl)cc2)N=C(N2Nc3onc(-c4ccccc4)c3C2c2ccc(Cl)cc2)NN1` (stereo unspecified), the results for the half-maximal effective concentration (EC50) in series [1] and in series [2] were 0.67 nM and 0.37 nM, respectively. For the same compound, the values for the CC50 in series [3] and in series [4] were 270 nM and 450 nM, respectively. Moreover, the selectivity ratio in series [5] turned out to be 403; in series [6], 1220. Further, the IC50 in series [7] is 0.028 nM. The half-life in series [8] stood at 4.05 h.

As to `O=C1Nc2ccc(Cl)cc2[C@@](C#CC2CC2)(C(F)(F)F)O1` [EFAVIRENZ], the EC50 in series [1] was 0.92 nM; in series [2] it was 0.98 nM. Further, the results for the CC50 in series [3] and in series [4] were 550 nM and 320 nM, respectively. Besides, in series [8], the half-life came out at 1.48 h.

For orientation: EC50 means the midpoint of the concentration-response curve. One may read the CC50 as the concentration giving 50% cytotoxicity. For orientation: IC50 means the midpoint of a concentration-inhibition curve. One may read the half-life as the time needed for the level to fall by half in the phase considered.
